# According to patent US9351950B2, “Method for preventing or treating allergic disease using capsiate or salt thereof” (CATHOLIC UNIVERSITY OF KOREA INDUSTRY-ACADEMIC COOPERATION …, priority 2014, dated 2016):
# What was measured:
# [1] = tested on: activated human mast cell line (HMC-1 cells); assay: Real-time PCR of cytokine transcripts in activated HMC-1 cells; type: cell-based; details: 50 μM, 37° C., 4 hours; HMC-1 cells activated with A23187 and PMA; normalized with GAPDH
# Experimental: HMC-1 cells were grown in IMDM media supplemented with 100 U/ml of penicillin, 100 µg/ml of streptomycin, and 10% heat-inactivated FBS in an incubator containing 5% CO2 at 37° C. HMC-1 cells were activated by treatment with A23187 and PMA
# In order to understand the inhibitory effect of capsiate on the increase of cytokines in activated HMC-1 cells, HMC-1 cells were treated with 50 μM of capsiate and capsaicin at 37° C. for 4 hours, respectively, and the transcript expressions of cytokines IL-6 and TNF-α were confirmed through real-time PCR. Total RNA was isolated from HMC-1 cells with RNeasy Mini kit (Quiagen, Valencia, Calif., USA) and the first strand of cDNA was synthesized using QuantTect Reverse Transcription kit (Quiagen, Germany). Real-time PCR was performed using KAPA SYBR fast qPCR kit (KAPA Blosystems, Woburn, Mass., USA). The following parameters were used for the PCR: 95° C. for 10 minutes, followed by 50 cycles of 95° C. for 20 seconds, 55° C. for 30 seconds, and 72° C. for 20 seconds. The gene expression levels were normalized with GAPDH expression level. The primer sets for IL-6 and TNF-α were purchased from QIAGEN.
# [2] = tested on: activated human mast cell line (HMC-1 cells); assay: ELISA of cytokines in activated HMC-1 cells; type: cell-based; details: 50 μM, 37° C., 16 hours
# Experimental: (§1) HMC-1 cells were grown in IMDM media supplemented with 100 U/ml of penicillin, 100 µg/ml of streptomycin, and 10% heat-inactivated FBS in an incubator containing 5% CO2 at 37° C. HMC-1 cells were activated by treatment with A23187 and PMA In order to understand the inhibitory effect of capsiate on the increase of cytokines in activated HMC-1 cells, HMC-1 cells were treated with 50 μM of capsiate and capsaicin at 37° C. for 16 hours, and the expression levels of cytokines IL-6 and TNF-α were confirmed through ELISA assay. Capture antibody was added in ELISA plate and incubated overnight 4° C. Next day, the capture antibody was washed with PBS/Tween buffer, and blocking buffer was added. After 1 hr incubation at room temperature, the blocking buffer was washed out and standard or sample supernatant was added. The plate was incubated overnight at 4° C. and washed out. After washing, detection antibody was added and incubated for 1 hr at room temperature, followed by washing the plate. Streptavidin-HRP was added to each well, incubated at room temperature for 30 mins, and then the plate was washed. TMB was used as a substrate. After TMB was added to the plate, stop solution was added to stop color development, and the plate was read using ELISA reader.
# [3] = tested on: activated mouse bone marrow derived mast cells (BMMCs); assay: Real-time PCR of cytokine transcripts in activated BMMCs; type: cell-based; details: 50 μM, 37° C., 4 hours; BMMCs activated by anti-mouse DNP-IgE and DNP-HSA
# Experimental: (§2) Bone marrow cells were obtained from tibias and femurs of approximately 8 to 10 week old C57/BL/6 mice and cultured in RPMI 1640 media supplemented with 10% FCS, 100 U/ml of penicillin, 100 μg/ml of streptomycin in the presence of mIL-3 (10 ng/ml) and mSCF (50 ng/ml) for 6 weeks in an incubator containing 5% CO2 at 37° C. […] BMMC were activated by 1 μg/ml of anti-mouse DNP-IgE for overnight, followed by the treatment with 10 ng/ml of DNP-HSA for 6 hr to 24 hr.
# In order to understand the inhibitory effect of capsiate on the increase in cytokines in activated BMMCs, BMMCs were treated with 50 μM of capsiate at 37° C. for 4 hours, and the transcript expressions of cytokines IL-6 and TNF-α were confirmed through real-time PCR. Total RNAs were isolated from […] with RNeasy Mini kit (Quiagen, Valencia, Calif., USA) and the first strand of cDNA was synthesized using QuantTect Reverse Transcription kit (Quiagen, Germany). Real-time PCR was performed using KAPA SYBR fast qPCR kit (KAPA Blosystems, Woburn, Mass., USA). The following parameters were used for the PCR: 95° C. for 10 mins, followed by 50 cycles of 95° C. for 20 s, 55° C. for 30 s, and 72° C. for 20s. The gene expression levels were normalized with GAPDH expression level. The primer sets for IL-6 and TNF-α were purchased from QIAGEN.
# [4] = tested on: activated mouse bone marrow derived mast cells (BMMCs); assay: ELISA of cytokines in activated BMMCs; type: cell-based; details: 50 μM, 37° C., 16 hours
# Experimental: as §2
# as §1, with “In order” for “HMC-1 cells were grown in IMDM media supplemented with 100 U/ml of penicillin, 100 µg/ml of streptomycin, and 10% heat-inactivated FBS in an incubator containing 5% CO2 at 37° C. HMC-1 cells were activated by treatment with A23187 and PMA In order”, “in activated BMMCs, BMMCs were treated” for “in activated HMC-1 cells, HMC-1 cells were treated”, “of capsiate at 37°” for “of capsiate and capsaicin at 37°”, “Capture antibody for IL-6 or TNF-α was added” for “Capture antibody was added”, “detection antibody for IL-6 and TNF-α was added” for “detection antibody was added”
# [5] = tested on: atopic dermatitis induced by 2,4-dinitro-1-fluorobenzene (DNFB) in mice; assay: Atopic dermatitis induced by DNFB in mice, histological staining and epidermal thickness; type: in vivo; details: 1 mM capsiate in acetone coated 1 hour before DNFB treatment
# Experimental: (§3) DNFB was sensitized by being diluted to 0.15% with a vehicle in which acetone and olive oil are mixed in a ratio of 3:1. Atopic dermatitis was induced by treating twice with a 0.2% DNFB solution. The capsiate-treated group was coated with 1 mM capsiate dissolved in acetone, 1 hour before DNFB treatment (See FIG. 5).
# After being cut with induced atopic dermatitis, the skin tissue was fixed in 4% formaldehyde for 24 hours, followed by washing and dehydration, and then a […] skin section was prepared using a paraffin block. The tissue section was deparaffinized with xylene, immerged in alcohol, and then stained with hematoxyline and eosin. After the staining, the tissue was observed using a phase contrast microscope. As for the dermal thickness, the dermal thicknesses at five places on the tissue image were measured, and the mean and standard deviation thereof were obtained and shown on a graph.
# [6] = tested on: serum IgE; assay: Serum IgE level (ELISA) in atopic dermatitis mouse model induced by DNFB; type: in vivo, mice
# Experimental: as §3
# IgE capture antibody was added in the plate, and allowed to stand at 4° C. overnight. The next day, the capture antibody was washed with PBS/Tween buffer, and blocking buffer was added, followed by reaction at room temperature for 1 hour. After the blocking buffer was washed out, IgE standard and mouse serum were added, followed by standing at 4° C. overnight. The next day, after washing was performed, the IgE detection antibody was added, followed by reaction at room temperature for 1 hour. After washing was again performed, Streptavidin-HRP was added, followed by a reaction at room temperature for 30 minutes. After washing was again performed, TMB as a substrate was added. Then, a stop solution was added, and the absorbance was measured using an ELISA reader.
# [7] = tested on: atopic dermatitis sites of mice; assay: Cytokine expression (real-time PCR) in mouse atopic dermatitis sites; type: in vivo; details: atopic dermatitis site, 1 mM capsiate, dosing as in example 3-1
# Experimental: as §3
# (§4) The cytokine inhibitory effect of capsiate was verified at atopic dermatitis sites of mice. The dosing concentrations of DNFB and capsiate were the same as in example <3-1> above, and the transcript expressions of cytokines IL-4 and TSLP were confirmed through real-time PCR. Real-time PCR conditions were established by the same method as in example <1-2> above, and the primer set was purchased from QIAGEN.
# [8] = tested on: atopic dermatitis sites of mice; assay: Chemokine expression (real-time PCR) in mouse atopic dermatitis sites; type: in vivo; details: atopic dermatitis site, 1 mM capsiate, dosing as in example 3-1
# Experimental: as §3
# as §4, with “chemokine” for “cytokine”, “in” for “was verified at”, “mice was verified.” for “mice.”, “chemokines CCL11, CCL17,” for “cytokines IL-4”, “CCL22” for “TSLP”
# [9] = tested on: Th2 cell differentiation, lymph node; assay: Th2 cell differentiation in lymph node of atopic dermatitis mouse model; type: in vivo, mice; details: lymph node cells; intracellular staining CD4, IL-4, IL-5; dosing as in example 3-1
# Experimental: as §3
# (§5) After lymphocytes were taken out from mice, a single cell suspension was prepared, and then 3 μg/ml of anti-CD28 antibody was added in the plate to which anti-CD3 antibody adheres, followed by incubation for 3 days. On the third day, PMA (20 ng/ml) and ionomycin (1 μM) were added, followed by incubation for 5 hours. The cells were collected, and then subjected to intracellular staining using Cytofix/Cytoperm kit (BD bioscience) and anti-CD4 antibody, anti-IL-4 antibody, and anti-IL-5 antibody (BD bioscience). The dosing concentrations of DNFB and capsiate were the same as in example <3-1> above.
# [10] = tested on: Th2 cell differentiation, spleen; assay: Th2 cell differentiation in spleen of atopic dermatitis mouse model; type: in vivo, mice; details: spleen cells; intracellular staining CD4, IL-4, IL-5; dosing as in example 3-1
# Experimental: as §3
# as §5, with “the spleen was” for “lymphocytes were”
# [11] = tested on: passive cutaneous anaphylaxis (PCA); assay: Passive cutaneous anaphylaxis (PCA): capillary vessel permeability and mouse ear thickness; type: in vivo
# Experimental: The passive cutaneous anaphylaxis inhibitory effect of capsiate was verified by measuring capillary vessel permeability and mouse ear thickness. The capillary vessel permeability was verified by intravenously injecting Evan's blue, which is a blue staining agent, mixed with antigen, and quantifying the staining agent coming out from ear capillary vessels to the skin tissue. The quantification was conducted by cutting the ear tissue, putting the cut ear tissue in formamide, performing incubation at 65° C. for 16 hours, extracting Evan's blue in the ear tissue, and measuring the absorbance. The mouse ear thickness was measured using D15 ear thickness gauge.
# [12] = tested on: BMCC induced with IgE antigen; assay: Pro-inflammatory cytokine expression (real-time PCR) in BMCC induced with IgE antigen; type: cell-based, mouse
# Source text: The inflammatory cytokine expression inhibitory effect of capsiate was verified in BMCC induced with IgE antigen. The transcript expressions of cytokines IL-1β, IL-6, and TNF-α were verified through real-time PCR. Real-time PCR conditions were established by the same method as in example <1-2> above, and the primer set was purchased from QIAGEN.
Structure (SMILES),transcript expression of IL-6 (real-time PCR) [1],transcript expression of TNF-α (real-time PCR) [1],expression level of IL-6 (ELISA) [2],expression level of TNF-α (ELISA) [2],transcript expression of IL-6 (real-time PCR) [3],transcript expression of TNF-α (real-time PCR) [3],expression level of IL-6 (ELISA) [4],expression level of TNF-α (ELISA) [4],other results
"COc1cc(CNC(=O)CCCC/C=C/C(C)C)ccc1O [capsaicin, reference compound]",increased,increased,increased,increased,increased,increased,increased,increased,–
COc1cc(COC(=O)CCCC/C=C/C(C)C)ccc1O [capsiate],significantly decreased,significantly decreased,significantly decreased,significantly decreased,significantly decreased,significantly decreased,significantly decreased,significantly decreased,"atopic dermatitis induced by DNFB in the mice [5]: inhibited; dermal thickness increased by DNFB ([5]; H&E stained skin section): decreased; level of serum IgE increased due to DNFB [6]: decreased; transcript expression of IL-4 increased by DNFB [7]: decreased; transcript expression of TSLP increased by DNFB [7]: decreased; transcript expression of CCL11 increased by DNFB [8]: decreased; transcript expression of CCL17 increased by DNFB [8]: decreased; transcript expression of CCL22 increased by DNFB [8]: decreased; Th2 cell differentiation increased by DNFB at the lymph node [9]: inhibited; Th2 cell differentiation increased by DNFB in the spleen [10]: inhibited; capillary vessel permeability increased by DNP IgE ([11]; Evan's blue extracted from mouse ear tissue, absorbance): inhibited; ear edema increased by DNP IgE ([11]; mouse ear thickness, ear thickness gauge): inhibited; transcript expression of IL-1β increased by IgE antigen [12]: decreased; transcript expression of IL-6 increased by IgE antigen [12]: decreased; transcript expression of TNF-α increased by IgE antigen [12]: decreased"
